MIC data for two compounds are collected here from DBAASP.

Some test systems named below: Aspergillus fumigatus; Staphylococcus aureus; Bibersteinia trehalosi; Klebsiella pneumoniae; Pasteurella multocida; Escherichia coli O157:H7; Escherichia coli DC2; Escherichia coli UB1005; Candida albicans 105; Candida albicans 3153A; Escherichia coli O111.
Holding throughout (assay): ≥ marks a high value that may be exact or a test limit, other limits are often not marked, values filed in µg/mL are converted to µM
For assay [1], the system named is Pseudomonas aeruginosa PAO1.
In assay [2] the test system is Salmonella enterica subsp. arizonae.
Assay [3] has as its system Corynebacterium pseudotuberculosis ATCC 19410.
The subject of assay [4] is Mannheimia haemolytica Serovar 2.
The subject of assay [5] is Mannheimia haemolytica Serovar 6.
For assay [6], the system named is Mannheimia haemolytica Serovar 1.
Assay [7] relates to Salmonella enterica serovar Typhimurium MS4252S.
Assay [8] relates to Staphylococcus aureus 1056.
The test system of assay [9] is Salmonella enterica subsp. enterica serovar Typhimurium ATCC 14028s.
Assay [10] deals with Staphylococcus aureus NCTC 4163.
Assay [11] deals with Staphylococcus aureus R147.
In assay [12] the test system is Staphylococcus epidermidis.
The test system of assay [13] is Enterococcus faecalis ATCC 29212.
Assay [14] relates to Pseudomonas aeruginosa Z61.

Converted amounts (≈) assume the structure as drawn. “And” between values parts separate entries of the source, which are not always exact repeats. Equal entries are not always repeated.

As usually defined, the MIC is the lowest concentration found to suppress growth. Consider `CC[C@H](C)[C@H](NC(=O)[C@H](Cc1cnc[nH]1)NC(=O)[C@@H](NC(=O)[C@@H](NC(=O)[C@H](CCCCN)NC(=O)[C@H](CCCN=C(N)N)NC(=O)[C@@H](NC(=O)[C@@H](NC(=O)[C@H](CCCN=C(N)N)NC(=O)[C@H](CCCN=C(N)N)NC(=O)[C@@H](N)CC(C)C)[C@@H](C)CC)[C@@H](C)CC)[C@@H](C)CC)[C@@H](C)CC)C(=O)N[C@H](C(=O)N[C@@H](CCCCN)C(N)=O)[C@@H](C)CC` [LRRIIRKIIHIIK], for which the MIC was found to be 4.96 µM (≈ 8.3 µg/mL) in the assay with Aspergillus fumigatus; 1.02 µM (≈ 1.7 µg/mL) in [1]; 12 µM (≈ 20 µg/mL) in assay [2]; 5.98 µM (≈ 9.99 µg/mL) in the assay with Staphylococcus aureus; 2.99 µM (≈ 5 µg/mL) against Bibersteinia trehalosi; 4.01 µM (≈ 6.7 µg/mL) in the assay with Klebsiella pneumoniae. The MIC in assay [3] stood at 12 µM (≈ 20 µg/mL); in assay [4] it was 1.02 µM (≈ 1.7 µg/mL); in assay [5], 2.51 µM (≈ 4.2 µg/mL); in [6], 1.97 µM (≈ 3.3 µg/mL); in the assay on Pasteurella multocida, 2.99 µM (≈ 5 µg/mL).
Turning to `CC[C@H](C)[C@H](NC(=O)[C@@H]1CCCN1C(=O)[C@@H]1CCCN1C(=O)[C@H](CCCN=C(N)N)NC(=O)[C@H](Cc1ccccc1)NC(=O)[C@@H](N)CCCN=C(N)N)C(=O)N[C@@H](CCCN=C(N)N)C(=O)N[C@@H](CCCN=C(N)N)C(=O)N1CCC[C@H]1C(=O)N1CCC[C@H]1C(=O)N[C@H](C(=O)N[C@@H](CCCN=C(N)N)C(=O)N1CCC[C@H]1C(=O)N1CCC[C@H]1C(=O)N[C@@H](Cc1ccccc1)C(=O)N[C@@H](CCCN=C(N)N)C(=O)N1CCC[C@H]1C(=O)N1CCC[C@H]1C(=O)N[C@@H](Cc1ccccc1)C(=O)N[C@@H](CCCN=C(N)N)C(=O)N1CCC[C@H]1C(=O)N1CCC[C@H]1C(=O)N[C@H](C(=O)N[C@@H](CCCN=C(N)N)C(N)=O)C(C)C)[C@@H](C)CC` [RFRPPIRRPPIRPPFRPPFRPPVR], the MIC in [1] is 1.33 µM (≈ 4 µg/mL); in [7] it was 0.0416 µM (≈ 0.125 µg/mL); in [8] it was 5.32 µM and 8.65 µM; in assay [9] it was 0.166 µM (≈ 0.5 µg/mL); in the assay with Escherichia coli O157:H7, 2.66 µM and 5.42 µM; with Escherichia coli DC2, 0.0416 µM (≈ 0.125 µg/mL). For the same compound, the MIC came to 10.6 µM (≈ 32 µg/mL) in assay [10]; 21.3 µM (≈ 64 µg/mL) in [11]; 0.0416 µM (≈ 0.125 µg/mL) in the assay on Escherichia coli UB1005; 10.6 µM (≈ 32 µg/mL) against Candida albicans 105; 5.32 µM (≈ 16 µg/mL) with Candida albicans 3153A; 0.665 µM (≈ 2 µg/mL) against Escherichia coli O111. The results for the MIC in assay [12], in assay [13] and in [14] were 5.32 µM (≈ 16 µg/mL), 10.6 µM (≈ 32 µg/mL) and 2.66 µM (≈ 8 µg/mL), respectively.
